Experimental data as given in patent US11684611B2, “Compounds for treating diseases associated with a mitochondrial dysfunction” (Amabiotics, priority 2016, dated 2023).

Test system: rat primary dopaminergic neurons (TH positive neurons)
Assay: Neuroprotective effect on rat primary cultures of dopaminergic neurons injured by 6-OHDA (count of TH positive neurons)
Format: cell-based
Conditions: for survival of primary dopaminergic neuron culture (TH positive neurons), % of control: p<0.05 vs 6-OHDA
Method: Accordingly, this study investigates the effect of queuine on rat primary mesencephalic cultures injured by exposure to 6-OHDA.
Rat dopaminergic neurons are cultured as described by Schinelli et al. (1988) J. Neurochem. 50:1900-1907.
Briefly, pregnant female rats (Wistar rats; Janvier) at 15 days of gestation are killed by cervical dislocation and the fetuses are removed from the uterus. The embryonic midbrains is removed and placed in ice-cold Leibovitz medium (L15; PanBiotech) containing 2% of Penicillin-Streptomycin (PS; PanBiotech) and 1% of bovine serum albumin (BSA; PanBiotech). Only the ventral portions of the mesencephalic flexure is used for cell preparations as this is the region of the developing brain rich in dopaminergic neurons. The midbrain is dissociated by trypsinisation for 20 min at 37° C. (Trypsin EDTA 1X; PanBiotech). The reaction is stopped by the addition of Dulbecco's modified Eagle's medium (DMEM; PanBiotech) containing DNAse I grade II (0.1 mg/mL; Roche Diagnostic) and 10% of fetal calf serum (FCS; Invitrogen). The cells are mechanically dissociated by 3 passages through a 10 ml pipette. The dissociated cells are then centrifuged at 180×g for 10 min at 4° C. on a layer of BSA (3.5%) in L15 medium. The supernatant is discarded and the pelleted cells are re-suspended in a culture medium consisting of Neurobasal (Invitrogen, Ref: 21103, Batch: 1725098) supplemented with B27 (2%; Invitrogen, ref: 17504), L-glutamine (2 mM; PanBiotech, Ref: P04-80100) and 2% of PS, 10 ng/mL of BDNF (PanBiotech, Ref: CB-1115002) and 1 ng/mL of GDNF (PanBiotech, Ref: CB-1116001). Viable cells are counted in a Neubauer cytometer using the trypan blue exclusion test. The cells are then seeded at a density of 40 000 cells/well in 96 well-plates pre-coated with poly-D-lysine (Greiner) and are cultured at 37° C. in a humidified air (95%)/CO2 (5%) atmosphere. Half of the medium is changed every 2 days with fresh medium. In these conditions, after 5 days of culture, astrocytes are present in the culture and release growth factor allowing neurons differentiation. Five to six percent of the neuronal cell population are dopaminergic neurons.
Each condition is replicated in six wells of the 96-wells culture plates. 1.4. End Point Evaluation: Determination of the Total Number of Dopaminergic Neurons
At the end of the incubation time, the cells are fixed by a solution of 4% paraformaldehyde for 20 min at room temperature. The cells are then permeabilized and non-specific sites are blocked with a solution of phosphate buffered saline (PBS; PanBiotech) containing 0.1% of saponin (Sigma) and 1% fetal calf serum (FCS) for 15 min at room temperature. Eventually, the cells are incubated with a monoclonal anti-Tyrosine Hydroxylase (TH) mouse antibody (Sigma) in PBS containing 1% FCS and 0.1% saponin, for 2 h at room temperature. The anti-TH antibody targets dopaminergic neurons.
The nuclei of the cells is stained by a fluorescent marker (Hoechst solution, SIGMA) in the same solution.
For each condition, 20 pictures per well are taken using InCell Analyzer™ 2000 (GE Healthcare) with 20× magnification. Images of each culture well are also taken.
The analysis of the cell bodies of TH positive neurons are performed using Developer software (GE healthcare). A total of 6 data per experimental condition is provided. All values are expressed as mean±s.e. mean. For statistical analyses ANOVA is performed followed by Dunnett's test.

## NCCc1cc(O)c(O)cc1O [6-OHDA, 6-hydroxydopamine, reference compound]
6-OHDA alone at 20 μM for 48 h, FIG. 1 and FIG. 2
  effect on number of TH positive neurons: large and significant decrease

## Nc1nc2[nH]cc(CN[C@H]3C=C[C@H](O)[C@@H]3O)c2c(=O)[nH]1 [queuine, 7-(3,4-trans-4,5-cis-dihydroxy-1-cyclopenten-3-ylaminomethyl)-7-deazaguanine]
Preliminary results, rat primary mesencephalic cultures
  effect on 6-OHDA-induced neurotoxicity: neuroprotective effect
Queuine 0.3 μM added 6 days before 6-OHDA intoxication (20 μM, 48 h), FIG. 2
  survival of primary dopaminergic neuron culture (TH positive neurons), % of control: 80.47 % of the control
Queuine 1 μM added 1 day (24 hours) before 6-OHDA intoxication (20 μM, 48 h), FIG. 1
  survival of primary dopaminergic neuron culture (TH positive neurons), % of control: 81.33 % of the control

B1: BDNF: brain-derived neurotrophic factor, obtained from PanBiotech, used as positive control (protein, UniProt P23560 19-247, looked up)
Neurotrophic factor BDNF …: APMKEANIRGQGGLAYPGVRTHGTLESVNGPKAGSRGLTSLADTFEHVIEELLDEDQKVRPNEENNKDADLYTSRVMLSSQVPLEPPLLFLLEEYKNYLDAANMSMRVRRHSDPARRGELSVCDSISEWVTAADKKTAVDMSGGTVTVLEKVPVSKGQLKQYFYETKCNPMGYTKEGCRGIDKRHWNSQCRTTQSYVRALTMDSKKRIGWRFIRIDTSCVCTLTIKRGR
BDNF 50 ng/mL applied 1 day before 6-OHDA intoxication (20 μM, 48 h), FIG. 1
  survival of primary dopaminergic neuron culture (TH positive neurons), % of control: 80.80 % of the control
BDNF 50 ng/mL applied 6 days before 6-OHDA intoxication (20 μM, 48 h), FIG. 2
  survival of primary dopaminergic neuron culture (TH positive neurons), % of control: 83.44 % of the control
